Experiments:
Type in all cases: in vivo, female SD rats
[1] = test system: Myocardial Disorder Induced by Doxorubicin; experiment: Relative weights of the hearts, myocardial disorder induced by doxorubicin; details: Test group 1: doxorubicin 13 mg/kg alone
Excerpt: Doxorubicin is used to produce disease-model animals of cardiomyopathy. […] The recombinant human erythropoietin (rHuEPO) is mainly used in the treatment of renal anemia etc., and has the effect to protect myocardium. The test group 3 is used to confirm the presence or absence of the inhibitory effect brought about by combining HTHQ and rHuEPO on myocardial disorder. […] Recombinant human erythropoietin was daily administered to the rats in test group 3 starting from 3 days before the administration of doxorubicin by intravenous injection. The number of animals in each group was 16. 8 animals of each group were sacrificed after collecting blood on day 7 and 14 after the administration of doxorubicin, and the autopsy of the hearts, the calculation of the relative weights of the hearts, the histopathologic examination of the hearts and the hematological examination were conducted. Myocardium is hypertrophied by fibrosing and the weight of the myocardium increases, and the relative weight of the heart tends to increase. […] Also, there was no significant difference between the other groups on day 7 and 14 after the administration (p<0.05).

[2] = test system: Myocardial Disorder Induced by Doxorubicin; experiment: Autopsy and gross pathology of the hearts, myocardial disorder induced by doxorubicin; details: test groups 1 to 3, doxorubicin 13 mg/kg; compared to the control group
Method: (§1) Doxorubicin is used to produce disease-model animals of cardiomyopathy. The doxorubicin and 2,3,5-trimethylhydroquinone-1-hexyl ether (HTHQ) as the hydroquinone derivative represented by the general formula (1) described above of the present invention were simultaneously administered to female SD rats of 4 week old after birth to examine the effect of the action. The test groups consisted of the control group to which sterile saline was administered; test group 1 to which doxorubicin (13 mg/kg body weight) alone was administered; test group 2 to which doxorubicin (13 mg/kg body weight) and HTHQ (50 mg/kg body weight) were administered in combination; and test group 3 to which doxorubicin (13 mg/kg body weight), HTHQ (50 mg/kg body weight) and recombinant human erythropoietin (400 IU/kg body weight) were administered in combination. The recombinant human erythropoietin (rHuEPO) is mainly used in the treatment of renal anemia etc., and has the effect to protect myocardium. The test group 3 is used to confirm the presence or absence of the inhibitory effect brought about by combining HTHQ and rHuEPO on myocardial disorder.
(§2) Doxorubicin was orally administered in a single dose to the rats in test groups 1 to 3. […]

[3] = test system: Myocardial Disorder Induced by Doxorubicin; experiment: Histopathologic examination of the hearts (light microscope), myocardial disorder induced by doxorubicin; details: Test group 1: doxorubicin 13 mg/kg alone
Method: as §1, with “The recombinant human erythropoietin (rHuEPO) is mainly used in the treatment of renal anemia etc., and has the effect to protect myocardium.” left out
Doxorubicin was orally administered in a single dose to the rats in test groups 1 to 3. 2,3,5-trimethylhydroquinone-1-hexyl ether (HTHQ) was orally administered to the rats in test groups 2 and 3 twice in total: 3 days before the administration of doxorubicin and on the day of the administration. Recombinant human erythropoietin was daily administered to the rats in test group 3 starting from 3 days before the administration of doxorubicin by intravenous injection. The number of animals in each group was 16. 8 animals of each group were sacrificed after collecting blood on day 7 and 14 after the administration of doxorubicin, and the autopsy of the hearts, the calculation of the relative weights of the hearts, the histopathologic examination of the hearts and the hematological examination were conducted.
“−” indicates “not found”, “+” indicates “mild”, “++” indicates “moderate”, and “+++” indicates “severe” in severity scores of the table.

[4] = test system: Myocardial Disorder Induced by Doxorubicin; experiment: Histopathologic examination of the hearts (transmission electron microscope), myocardial disorder induced by doxorubicin; details: Test group 1: doxorubicin 13 mg/kg alone; day 7
Method: as §1, with “The recombinant human erythropoietin (rHuEPO) is mainly used in the treatment of renal anemia etc., and has the effect to protect myocardium.” left out
Doxorubicin was orally administered in a single dose to the rats in test groups 1 to 3. 2,3,5-trimethylhydroquinone-1-hexyl ether (HTHQ) was orally administered to the rats in test groups 2 and 3 twice in total: 3 days before the administration of doxorubicin and on the day of the administration. […]

[5] = test system: Creatine phosphokinase (CPK); experiment: Creatine phosphokinase (CPK) value in blood, myocardial disorder induced by doxorubicin; details: Test group 1: doxorubicin 13 mg/kg alone; day 14; p<0.05
Method: as §1, §2

relative weight of the heart ([1]; Day 7 after administration): 0.3819 ± 0.0204%
relative weight of the heart ([1]; Day 14 after administration): 0.3626 ± 0.0221%
gross pathology of the hearts [2]: Apparent lesions were not observed
Severity score: Cell infiltration in interstitial tissue ([3]; Day 7 after administration): +
Severity score: Degeneration of myocardial cells ([3]; Day 7 after administration): ++
Severity score: Loss and disorganization of myocardial fibers ([3]; Day 7 after administration): ++
Severity score: Loss of intercalated discs ([3]; Day 7 after administration): +
Severity score: Loss of striations ([3]; Day 7 after administration): ++
Severity score: Vacuolation of myocardial fibers ([3]; Day 7 after administration): +
Severity score: Cell infiltration in interstitial tissue ([3]; Day 14 after administration): −
Severity score: Degeneration of myocardial cells ([3]; Day 14 after administration): +++
Severity score: Loss and disorganization of myocardial fibers ([3]; Day 14 after administration): +++
Severity score: Loss of intercalated discs ([3]; Day 14 after administration): ++
Severity score: Loss of striations ([3]; Day 14 after administration): +++
Severity score: Vacuolation of myocardial fibers ([3]; Day 14 after administration): +++
Structure (SMILES): COc1cccc2c1C(=O)c1c(O)c3c(c(O)c1C2=O)C[C@@](O)(C(=O)CO)C[C@@H]3O[C@H]1C[C@H](N)[C@H](O)[C@H](C)O1 [doxorubicin, reference compound]
findings in myocardial cells (transmission electron microscope) [4]: Loss of striations, loss of intercalated discs, swelling of mitochondria, loss of mitochondrial outer membrane and detachment of cristae etc. were observed
creatine phosphokinase (CPK) value [5]: significantly higher than that of the control group

From patent US20180049996A1, “THERAPEUTIC AGENT FOR CHRONIC RESPIRATORY DISEASE AND COMPOSITION FOR INHIBITING CARDIAC FIBROSIS” (NIPPON HYPOX LABORATORIES INCORPORATED, priority 2015, published 2018)
